The source of these data is patent US8569291B2, “Bicyclic dihydroimidazolone CGRP receptor antagonists” (Merck Sharp & Dohme Corp., priority 2008, dated 2013).

Sequence of recombinant human CL receptor/RAMP1 (Q16602 23-461): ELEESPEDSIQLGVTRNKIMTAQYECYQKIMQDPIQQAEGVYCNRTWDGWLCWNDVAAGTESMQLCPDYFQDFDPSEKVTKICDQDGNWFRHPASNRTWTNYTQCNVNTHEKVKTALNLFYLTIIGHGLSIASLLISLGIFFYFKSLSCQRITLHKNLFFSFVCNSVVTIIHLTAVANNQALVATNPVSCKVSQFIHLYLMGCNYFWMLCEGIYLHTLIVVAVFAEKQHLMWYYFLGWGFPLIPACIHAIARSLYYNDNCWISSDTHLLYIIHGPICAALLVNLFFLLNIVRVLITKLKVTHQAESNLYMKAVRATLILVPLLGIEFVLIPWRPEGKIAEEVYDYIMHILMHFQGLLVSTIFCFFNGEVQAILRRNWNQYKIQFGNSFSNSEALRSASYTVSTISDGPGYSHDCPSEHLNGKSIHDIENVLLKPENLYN
Sequence of recombinant human CL receptor/RAMP1 (O60894 27-148): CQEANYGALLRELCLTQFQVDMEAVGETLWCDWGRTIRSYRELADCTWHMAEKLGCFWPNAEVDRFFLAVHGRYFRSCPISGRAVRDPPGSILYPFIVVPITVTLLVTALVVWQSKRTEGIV

The experiment deals with recombinant human CL receptor/RAMP1 (Homo sapiens (Human), UniProt O60894+Q16602). In words: recombinant receptor binding assay (125I-hCGRP displacement). To be noted: membranes of HEK 293 cells expressing human CL receptor/RAMP1, 10 pM 125I-hCGRP. On the procedure:
RECOMBINANT RECEPTOR: Human CL receptor (Genbank accession number L76380) was subcloned into the expression vector pIREShyg2 (BD Biosciences Clontech) as a 5′NheI and 3′ PmeI fragment. Human RAMP1 (Genbank accession number AJ001014) was subcloned into the expression vector pIRESpuro2 (BD Biosciences Clontech) as a 5′NheI and 3′NotI fragment. HEK 293 cells (human embryonic kidney cells; ATCC #CRL-1573) were cultured in DMEM with 4.5 g/L glucose, 1 mM sodium pyruvate and 2 mM glutamine supplemented with 10% fetal bovine serum (FBS), 100 units/mL penicillin and 100 μg/mL streptomycin, and maintained at 37° C. and 95% humidity. Cells were subcultured by treatment with 0.25% trypsin with 0.1% EDTA in HBSS. Stable cell line generation was accomplished by co-transfecting 10 μg of DNA with 30 ug Lipofectamine 2000 (Invitrogen) in 75 cm^2 flasks. CL receptor and RAMP1 expression constructs were co-transfected in equal amounts. Twenty-four hours after transfection the cells were diluted and selective medium (growth medium+300 μg/mL hygromycin and 1 μg/mL puromycin) was added the following day. A clonal cell line was generated by single cell deposition utilizing a FACS Vantage SE (Becton Dickinson). Growth medium was adjusted to 150 μg/mL hygromycin and 0.5 μg/mL puromycin for cell propagation.
RECOMBINANT RECEPTOR BINDING ASSAY: Cells expressing recombinant human CL receptor/RAMP1 were washed with PBS and harvested in harvest buffer containing 50 mM HEPES, 1 mM EDTA and Complete protease inhibitors (Roche). The cell suspension was disrupted with a laboratory homogenizer and centrifuged at 48,000 g to isolate membranes. The pellets were resuspended in harvest buffer plus 250 mM sucrose and stored at—70° C. For binding assays, 20 μg of membranes were incubated in 1 ml binding buffer (10 mM HEPES, pH 7.4, 5 mM MgCl2, and 0.2% BSA) for 3 hours at room temperature containing 10 pM ^125I-hCGRP (GE Healthcare) and antagonist. The assay was terminated by filtration through 96-well GFB glass fiber filter plates (PerkinElmer) that had been blocked with 0.05% polyethyleneimine. The filters were washed 3 times with ice-cold assay buffer (10 mM HEPES, pH 7.4 and 5 mM MgCl2). Scintillation fluid was added and the plates were counted on a Topcount (Packard). Non-specific binding was determined and the data analysis was carried out with the apparent dissociation constant (Ki) determined by using a non-linear least squares fitting the bound CPM data to the equation below:
[formula] Where Y is observed CPM bound, Ymax is total bound counts, Ymin is non specific bound counts, (Ymax−Ymin) is specific bound counts, % Imax is the maximum percent inhibition, % I min is the minimum percent inhibition, radiolabel is the probe, and the Kd is the apparent dissociation constant for the radioligand for the receptor as determined by Hot saturation experiments.
As to `O=C(Cn1c(=O)n(-c2nccs2)c2ccccc21)Nc1ccc2c(c1)CC1(C2)N=C(c2ccccc2)NC1=O` (racemic) [Example 1, (±)-N-(5-oxo-2-phenyl-1,1′,3′,5-tetrahydrospiro[imidazole-4,2′-inden]-5′-yl)-2-[2-oxo-3-(1,3-thiazol-2-yl)-2,3-dihydro-1H-benzimidazol-1-yl]acetamide], the Ki turned out to be 25 nM.
For `O=C(Cn1c(=O)n(-c2ccccn2)c2ccccc21)Nc1ccc2c(c1)CC1(C2)N=C(c2ccccn2)NC1=O` (racemic) [Example 2, (±)-2-(2-oxo-3-pyridin-2-yl-2,3-dihydro-1H-benzimidazol-1-yl)-N-(5-oxo-2-pyridin-2-yl-1,1′,3′,5-tetrahydrospiro[imidazole-4,2′-inden]-5′-yl)acetamide], the Ki was determined as 570 nM.
As for `O=C(CN1C(=O)C2(CCCC2)NC[C@H]1c1cc(F)cc(F)c1)Nc1ccc2c(c1)CC1(C2)N=C(c2ccccc2)NC1=O` (single isomer, unassigned) [Example 11], the figure is 0.21 nM; as for `O=C(CN1C(=O)C2(CCCC2)NC[C@H]1c1cc(F)cc(F)c1)Nc1ccc2c(c1)CC1(C2)N=C(c2ccccc2)NC1=O` (single isomer, unassigned) [Example 12], 29 nM.
On to `O=C(Cn1c(=O)n(-c2ccccn2)c2ccccc21)Nc1ccc2c(c1)CC1(C2)N=C(C2CC2)NC1=O` (centres unmarked) [Example 3], for which the Ki turned out to be 2600 nM.
`CCCC1=NC2(Cc3ccc(NC(=O)Cn4c(=O)n(-c5ccccn5)c5ccccc54)cc3C2)C(=O)N1` (centres unmarked) [Example 4]: the Ki is 6400 nM.
As for `O=C(Cn1c(=O)n(-c2ccccn2)c2ccccc21)Nc1ccc2c(c1)CC1(C2)N=C(c2cnccn2)NC1=O` (centres unmarked) [Example 6], the figure is 630 nM; as for `O=C(Cn1c(=O)n(-c2ccccn2)c2ccccc21)Nc1ccc2c(c1)CC1(C2)N=C(c2ccccc2)NC1=O` (centres unmarked) [Example 7], 35 nM; as for `O=C(Cn1c(=O)n(-c2ccccn2)c2ccccc21)Nc1ccc2c(c1)CC1(C2)N=C(c2cccnc2)NC1=O` (centres unmarked) [Example 8], 130 nM.
For `O=C(Cn1c(=O)n(-c2ccccn2)c2ccccc21)Nc1ccc2c(c1)CC1(C2)N=C(c2ccncc2)NC1=O` (centres unmarked) [Example 9], the Ki came to 160 nM.
As for `C[C@@]1(c2cc(F)cc(F)c2)CNC2(CCCC2)C(=O)N1CC(=O)Nc1ccc2c(c1)CC1(C2)N=C(c2ccccc2)NC1=O` (some centres unmarked) [Example 13], the Ki was 1.6 nM.
